Results reported in ChEMBL document CHEMBL4665697, “Synthesis of the Major Mammalian Metabolites of THCV” (J Nat Prod, 2020).

Assays:
Cannabinoid receptor 1 = Cannabinoid receptor 1 (Homo sapiens, UniProt P21554); assay: Displacement of [3H]-CP-55,940 from recombinant human CB1R expressed in HEK293 cell membranes after 90 mins; parameters: species or system Cell membrane
Cannabinoid receptor 2 = Cannabinoid receptor 2 (Homo sapiens, UniProt P34972); assay: Displacement of [3H]-CP-55,940 from recombinant human CB2R expressed in HEK293 cell membranes after 90 mins; parameters: species or system Cell membrane
Sequence of Cannabinoid receptor 2 (P34972 whole entry): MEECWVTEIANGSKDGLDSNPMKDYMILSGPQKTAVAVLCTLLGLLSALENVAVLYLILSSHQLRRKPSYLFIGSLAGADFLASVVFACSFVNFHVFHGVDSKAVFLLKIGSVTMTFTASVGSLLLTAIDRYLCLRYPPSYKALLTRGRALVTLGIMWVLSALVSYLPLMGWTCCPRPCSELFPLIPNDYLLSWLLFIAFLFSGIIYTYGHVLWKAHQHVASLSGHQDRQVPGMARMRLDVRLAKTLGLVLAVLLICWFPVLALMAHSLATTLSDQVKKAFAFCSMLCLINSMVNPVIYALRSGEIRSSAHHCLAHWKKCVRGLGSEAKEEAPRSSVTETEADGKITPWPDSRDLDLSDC

Sequence of Cannabinoid receptor 1 (P21554 whole entry): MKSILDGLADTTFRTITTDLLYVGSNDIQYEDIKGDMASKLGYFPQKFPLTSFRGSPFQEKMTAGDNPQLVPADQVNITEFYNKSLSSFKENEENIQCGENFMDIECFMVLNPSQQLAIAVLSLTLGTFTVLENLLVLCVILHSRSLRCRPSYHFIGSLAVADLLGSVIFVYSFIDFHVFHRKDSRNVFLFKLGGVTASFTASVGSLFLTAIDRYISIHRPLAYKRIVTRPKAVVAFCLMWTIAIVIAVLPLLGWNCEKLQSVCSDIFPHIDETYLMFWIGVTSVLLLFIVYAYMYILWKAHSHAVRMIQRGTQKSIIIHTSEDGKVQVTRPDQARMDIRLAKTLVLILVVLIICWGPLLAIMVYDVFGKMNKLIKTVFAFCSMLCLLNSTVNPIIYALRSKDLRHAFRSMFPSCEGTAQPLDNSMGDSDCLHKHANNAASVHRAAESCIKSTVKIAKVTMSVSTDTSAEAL

## CCCc1cc(O)c2c(c1)OC(C)(C)[C@@H]1C[C@@H](O)C(C)=C[C@@H]21
Cannabinoid receptor 1
  IC50: > 10 µM
  Ki: > 10 µM
Cannabinoid receptor 2
  IC50: > 10 µM
  Ki: > 10 µM

## CCCc1cc(O)c2c(c1)OC(C)(C)[C@@H]1CCC(C)=C[C@@H]21 [TETRAHYDROCANNABIVARIN]
Cannabinoid receptor 1
  IC50: 0.0131 µM
  Ki: 0.0015 µM
Cannabinoid receptor 2
  IC50: 0.0176 µM
  Ki: 0.0028 µM

## CCCc1cc(O)c2c(c1)OC(C)(C)[C@@H]1C[C@H](O)C(C)=C[C@@H]21
Cannabinoid receptor 1
  IC50: 0.23 µM
  Ki: 0.0256 µM
Cannabinoid receptor 2
  IC50: 0.808 µM
  Ki: 0.128 µM

## CCCc1cc(O)c2c(c1)OC(C)(C)[C@@H]1CCC(C(=O)O)=C[C@@H]21
Cannabinoid receptor 1
  IC50: 1.68 µM
  Ki: 0.187 µM
Cannabinoid receptor 2
  IC50: 3.72 µM
  Ki: 0.59 µM

## CCCc1cc(O)c2c(c1)OC(C)(C)[C@@H]1CCC(CO)=C[C@@H]21
Cannabinoid receptor 1
  IC50: 0.0227 µM
  Ki: 0.0025 µM
Cannabinoid receptor 2
  IC50: 0.0298 µM
  Ki: 0.0047 µM
